In publication PMC7894038 (Antiviral research, 2020):
Like-named read-outs stand apart in the source and are kept apart here.

Target: eNP-CTD (Ebola virus nucleoprotein C-terminal domain, residues 641-739) (Zaire ebolavirus, UniProt P18272)
Assay: biochemical
Assay type: binding

eNP-CTD (Ebola virus nucleoprotein C-terminal domain, residues 641-739), sequence (P18272 641-739 limits assumed): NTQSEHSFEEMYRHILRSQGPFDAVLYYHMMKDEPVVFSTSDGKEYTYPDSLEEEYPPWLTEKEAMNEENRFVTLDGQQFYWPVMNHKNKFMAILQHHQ

Compound: CNCC1CCN(Cc2cccnc2)CC1 [CC69846, N-methyl-[1-(pyrid-3-ylmethyl)piperid-4-yl]methylamine]
- Site 1 ligand efficiency: 1.6 ± 0.2 (0.24)
- Site 3 ligand efficiency: 1.9 ± 0.3 (0.24)
- Site 4 ligand efficiency: 4.9 ± 1.8 (0.20)
- Kd (Site 1 Kd ± Std. Error): 1600 µM
- Kd (Site 3 Kd ± Std. Error): > 1630 µM
- Kd (Site 4 Kd ± Std. Error): > 1630 µM
- Site 2 Kd ± Std. Error (pH 7): did not bind
- Site 4 Kd ± Std. Error (pH 7): lower affinity
- Kd (read-out: Site 2 Kd ± Std. Error, pH 7): > 7000 µM
